Assay results taken from ChEMBL document CHEMBL1158093, “Isolation, structure elucidation, and biological evaluation of 15-amido-3-demethoxy-2alpha,3alpha-methylenedioxyerythroculine, a new alkaloid from Hyperbaena valida” (J Nat Prod, 2006).
Active and inactive are the calls of the source. The rule behind the calls is not given here.

Legend:
[1] = biological target: T1, Neuronal acetylcholine receptor; alpha3/beta4 (Rattus norvegicus, UniProt P04757+P12392); assay: Antagonist activity at rat alpha3beta4 nicotinic receptor expressed in KXalpha-3-beta-4R2 cells assessed as nicotine-induced calcium fluorescence; assay type: functional, cell-based
[2] = biological target: Neuronal acetylcholine receptor; alpha3/beta4 (Rattus norvegicus) (UniProt P04757+P12392); assay: Agonist activity at rat alpha3beta4 nicotinic receptor expressed in KXalpha-3-beta-4R2 cells assessed as nicotine-induced calcium fluorescence; assay type: functional, cell-based
[3] = biological target: T1, Neuronal acetylcholine receptor; alpha3/beta4; assay: Activity at rat alpha3beta4 nicotinic receptor expressed in KXalpha-3-beta-4R2 cells assessed as nicotine-induced 86Rb+ efflux; assay type: cell-based

T1 sequence (P04757 whole entry): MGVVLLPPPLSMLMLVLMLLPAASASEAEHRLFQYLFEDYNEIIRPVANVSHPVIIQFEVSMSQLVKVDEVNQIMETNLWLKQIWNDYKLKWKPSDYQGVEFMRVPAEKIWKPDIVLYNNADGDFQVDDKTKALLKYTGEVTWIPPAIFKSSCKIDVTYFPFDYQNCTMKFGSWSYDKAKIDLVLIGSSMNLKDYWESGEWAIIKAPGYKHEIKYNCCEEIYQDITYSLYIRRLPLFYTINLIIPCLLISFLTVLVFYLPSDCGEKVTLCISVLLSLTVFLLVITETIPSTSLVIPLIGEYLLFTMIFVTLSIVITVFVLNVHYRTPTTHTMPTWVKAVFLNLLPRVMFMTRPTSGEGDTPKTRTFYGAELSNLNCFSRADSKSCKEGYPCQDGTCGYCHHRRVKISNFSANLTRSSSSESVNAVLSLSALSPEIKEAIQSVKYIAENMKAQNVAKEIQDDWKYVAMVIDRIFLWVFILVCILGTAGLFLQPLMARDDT
T1 sequence (P12392 whole entry): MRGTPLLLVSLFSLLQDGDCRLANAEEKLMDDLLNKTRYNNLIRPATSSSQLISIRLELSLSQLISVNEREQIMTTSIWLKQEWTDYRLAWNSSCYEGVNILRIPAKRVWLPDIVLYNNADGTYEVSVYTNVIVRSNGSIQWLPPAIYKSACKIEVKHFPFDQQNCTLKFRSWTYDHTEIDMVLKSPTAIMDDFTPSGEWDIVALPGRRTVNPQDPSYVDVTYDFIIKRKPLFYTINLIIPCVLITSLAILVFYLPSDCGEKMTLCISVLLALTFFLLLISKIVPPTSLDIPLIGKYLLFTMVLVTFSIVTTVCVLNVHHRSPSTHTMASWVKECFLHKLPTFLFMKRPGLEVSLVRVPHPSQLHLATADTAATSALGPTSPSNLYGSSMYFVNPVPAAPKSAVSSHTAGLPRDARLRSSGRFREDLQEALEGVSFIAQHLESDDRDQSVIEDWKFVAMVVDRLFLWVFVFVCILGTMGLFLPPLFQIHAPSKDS

IC50 [1]	Activity [2]	SMILES	IC50 [3]
94 µM	inactive	COc1cc2c(cc1C(N)=O)[C@]13C[C@H]4OCO[C@H]4C=C1CCN3CC2	
		CO[C@H]1CC=C2CCN3CCC4=C(CC(=O)OC4)[C@]23C1	100 µM
77 µM	inactive	COC(=O)c1cc2c(cc1OC)CCN1CCC3=C[C@@H]4OCO[C@@H]4C[C@]321	
